# Assay results as given in ChEMBL document CHEMBL1126050, “Edward E. Smissman-Bristol-Myers Squibb Award Address. The role of concepts in structure-activity relationship studies of opioid ligands” (1992).
# Test system: Mus musculus
# Experiment: Compound was evaluated for antinociceptive potency by subcutaneous administration in mice using the hotplate assay
# Format: functional
# Details: sc
row,SMILES,ED50 [mg/kg]
1,CC1[C@@H]2Cc3ccc(O)cc3[C@@]1(C)CCN2CCc1ccccc1 (some centres undefined),0.1
2,C[C@H]1C2Cc3ccc(O)cc3[C@]1(C)CCN2C,2.6
3,CN1CC[C@]2(c3cccc(O)c3)CCC[C@H]1C2,2
4,Oc1cccc([C@@]23CCC[C@@H](C2)N(CCc2ccccc2)CC3)c1,3.99
